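Tested at 5 concentrations; 48 h exposure; 96-well plates; endpoints linearly interpolated, else capped at highest concentration. GI50 is the concentration that inhibits growth by half. TGI: concentration producing complete growth inhibition.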
Key:
Experiment in all cases: DTP human tumour cell line panel, 48 h
SR leukemia = tested on: SR leukemia
OVCAR-8 ovarian = tested on: OVCAR-8 ovarian
RPMI-8226 leukemia = tested on: RPMI-8226 leukemia
SK-OV-3 ovarian = tested on: SK-OV-3 ovarian
SF-539 CNS = tested on: SF-539 CNS
HCC-2998 colon = tested on: HCC-2998 colon
HS 578T breast = tested on: HS 578T breast
UACC-62 melanoma = tested on: UACC-62 melanoma
ACHN renal = tested on: ACHN renal
NCI-H460 lung = tested on: NCI-H460 lung
SK-MEL-28 melanoma = tested on: SK-MEL-28 melanoma
SF-295 CNS = tested on: SF-295 CNS
MDA-MB-435 = tested on: MDA-MB-435
RXF 393 renal = tested on: RXF 393 renal
SK-MEL-2 melanoma = tested on: SK-MEL-2 melanoma
HCT-15 colon = tested on: HCT-15 colon
HT29 colon = tested on: HT29 colon
UO-31 renal = tested on: UO-31 renal
M14 melanoma = tested on: M14 melanoma
NCI-H23 lung = tested on: NCI-H23 lung
NCI-H226 lung = tested on: NCI-H226 lung
T-47D breast = tested on: T-47D breast
NCI/ADR-RES ovarian = tested on: NCI/ADR-RES ovarian
KM12 colon = tested on: KM12 colon
A549 NSCLC = tested on: A549 NSCLC
MCF7 breast = tested on: MCF7 breast
COLO 205 colon = tested on: COLO 205 colon
OVCAR-3 ovarian = tested on: OVCAR-3 ovarian
UACC-257 melanoma = tested on: UACC-257 melanoma

C=CCSSC1N=CNc2nc[nH]c21 (stereo not drawn)
GI50 (SR leukemia): 1280 nM
TGI (SR leukemia): > 100 µM
GI50 (OVCAR-8 ovarian): 4 µM
TGI (OVCAR-8 ovarian): 23.3 µM
GI50 (RPMI-8226 leukemia): 1440 nM
TGI (RPMI-8226 leukemia): 6.26 µM
GI50 (SK-OV-3 ovarian): 562 nM
TGI (SK-OV-3 ovarian): > 88.6 µM
GI50 (SF-539 CNS): 2600 nM
TGI (SF-539 CNS): 32.4 µM
GI50 (HCC-2998 colon): 2820 nM
TGI (HCC-2998 colon): 23.8 µM
GI50 (HS 578T breast): 12.8 µM
TGI (HS 578T breast): > 100 µM
GI50 (UACC-62 melanoma): 1750 nM
TGI (UACC-62 melanoma): > 57.7 µM
GI50 (ACHN renal): 5.62 µM
TGI (ACHN renal): > 46.3 µM
GI50 (NCI-H460 lung): 8.16 µM
TGI (NCI-H460 lung): > 100 µM
GI50 (SK-MEL-28 melanoma): 27.2 µM
TGI (SK-MEL-28 melanoma): > 70.2 µM
GI50 (SF-295 CNS): 2610 nM
TGI (SF-295 CNS): > 100 µM
GI50 (MDA-MB-435): 2150 nM
TGI (MDA-MB-435): 39.9 µM
GI50 (RXF 393 renal): 4.73 µM
TGI (RXF 393 renal): 21.5 µM
GI50 (SK-MEL-2 melanoma): 6.11 µM
TGI (SK-MEL-2 melanoma): 19.2 µM
GI50 (HCT-15 colon): 4.71 µM
TGI (HCT-15 colon): 24.5 µM
GI50 (HT29 colon): 5.88 µM
TGI (HT29 colon): 36.5 µM
GI50 (UO-31 renal): 2720 nM
TGI (UO-31 renal): 13 µM
GI50 (M14 melanoma): 461 nM
TGI (M14 melanoma): 18.6 µM
GI50 (NCI-H23 lung): 8.09 µM
TGI (NCI-H23 lung): 42.8 µM
GI50 (NCI-H226 lung): 12.2 µM
TGI (NCI-H226 lung): > 100 µM
GI50 (T-47D breast): 1390 nM
TGI (T-47D breast): 26.5 µM
GI50 (NCI/ADR-RES ovarian): 4.46 µM
TGI (NCI/ADR-RES ovarian): > 80.6 µM
GI50 (KM12 colon): 4.42 µM
TGI (KM12 colon): > 43.6 µM
GI50 (A549 NSCLC): 30.5 µM
TGI (A549 NSCLC): > 100 µM
GI50 (MCF7 breast): 1020 nM
TGI (MCF7 breast): 16.1 µM
GI50 (COLO 205 colon): 3.52 µM
TGI (COLO 205 colon): 14.7 µM
GI50 (OVCAR-3 ovarian): 944 nM
TGI (OVCAR-3 ovarian): 14.2 µM
GI50 (UACC-257 melanoma): 5.34 µM
TGI (UACC-257 melanoma): 16.8 µM
